The target in one data set is NaV1.6 (Homo sapiens (Human), UniProt Q9UQD0). As to the kind of experiment: Sodium Influx Assay (Flux), NaV1.6.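 Also: Tetracycline-induced cells, compounds applied for one hour at room temperature with modulators holding channels open, IC50 from percent inhibition of sodium influx.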 The settings on record: Trex HEK293 cells, ANG2 dye, inactivated state. Format: cell-based.
A further data set has as its target NaV1.1 (Homo sapiens (Human), UniProt P35498). As to the kind of experiment: Sodium Influx Assay (Flux), NaV1.1.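 Also: channels co-expressed with human β1 subunit and held open by modulators, cells exposed to compounds for one hour at room temperature, IC50 from percent inhibition of influx.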 In kind it is cell-based. As to conditions: Trex HEK293 cells, ANG2 dye, inactivated state.
Another data set has as its target NaV1.5 (Homo sapiens (Human), UniProt Q14524). As to the kind of experiment: Sodium Influx Assay (Flux), NaV1.5. As to conditions: read-out: Flux NaV1.5 IC50; Trex HEK293 cells, ANG2 dye, inactivated state.

Where a name gives a salt, the structure may show the parent alone.

NaV1.5, sequence (Q14524 other isoform, or with tags, fused parts or gaps): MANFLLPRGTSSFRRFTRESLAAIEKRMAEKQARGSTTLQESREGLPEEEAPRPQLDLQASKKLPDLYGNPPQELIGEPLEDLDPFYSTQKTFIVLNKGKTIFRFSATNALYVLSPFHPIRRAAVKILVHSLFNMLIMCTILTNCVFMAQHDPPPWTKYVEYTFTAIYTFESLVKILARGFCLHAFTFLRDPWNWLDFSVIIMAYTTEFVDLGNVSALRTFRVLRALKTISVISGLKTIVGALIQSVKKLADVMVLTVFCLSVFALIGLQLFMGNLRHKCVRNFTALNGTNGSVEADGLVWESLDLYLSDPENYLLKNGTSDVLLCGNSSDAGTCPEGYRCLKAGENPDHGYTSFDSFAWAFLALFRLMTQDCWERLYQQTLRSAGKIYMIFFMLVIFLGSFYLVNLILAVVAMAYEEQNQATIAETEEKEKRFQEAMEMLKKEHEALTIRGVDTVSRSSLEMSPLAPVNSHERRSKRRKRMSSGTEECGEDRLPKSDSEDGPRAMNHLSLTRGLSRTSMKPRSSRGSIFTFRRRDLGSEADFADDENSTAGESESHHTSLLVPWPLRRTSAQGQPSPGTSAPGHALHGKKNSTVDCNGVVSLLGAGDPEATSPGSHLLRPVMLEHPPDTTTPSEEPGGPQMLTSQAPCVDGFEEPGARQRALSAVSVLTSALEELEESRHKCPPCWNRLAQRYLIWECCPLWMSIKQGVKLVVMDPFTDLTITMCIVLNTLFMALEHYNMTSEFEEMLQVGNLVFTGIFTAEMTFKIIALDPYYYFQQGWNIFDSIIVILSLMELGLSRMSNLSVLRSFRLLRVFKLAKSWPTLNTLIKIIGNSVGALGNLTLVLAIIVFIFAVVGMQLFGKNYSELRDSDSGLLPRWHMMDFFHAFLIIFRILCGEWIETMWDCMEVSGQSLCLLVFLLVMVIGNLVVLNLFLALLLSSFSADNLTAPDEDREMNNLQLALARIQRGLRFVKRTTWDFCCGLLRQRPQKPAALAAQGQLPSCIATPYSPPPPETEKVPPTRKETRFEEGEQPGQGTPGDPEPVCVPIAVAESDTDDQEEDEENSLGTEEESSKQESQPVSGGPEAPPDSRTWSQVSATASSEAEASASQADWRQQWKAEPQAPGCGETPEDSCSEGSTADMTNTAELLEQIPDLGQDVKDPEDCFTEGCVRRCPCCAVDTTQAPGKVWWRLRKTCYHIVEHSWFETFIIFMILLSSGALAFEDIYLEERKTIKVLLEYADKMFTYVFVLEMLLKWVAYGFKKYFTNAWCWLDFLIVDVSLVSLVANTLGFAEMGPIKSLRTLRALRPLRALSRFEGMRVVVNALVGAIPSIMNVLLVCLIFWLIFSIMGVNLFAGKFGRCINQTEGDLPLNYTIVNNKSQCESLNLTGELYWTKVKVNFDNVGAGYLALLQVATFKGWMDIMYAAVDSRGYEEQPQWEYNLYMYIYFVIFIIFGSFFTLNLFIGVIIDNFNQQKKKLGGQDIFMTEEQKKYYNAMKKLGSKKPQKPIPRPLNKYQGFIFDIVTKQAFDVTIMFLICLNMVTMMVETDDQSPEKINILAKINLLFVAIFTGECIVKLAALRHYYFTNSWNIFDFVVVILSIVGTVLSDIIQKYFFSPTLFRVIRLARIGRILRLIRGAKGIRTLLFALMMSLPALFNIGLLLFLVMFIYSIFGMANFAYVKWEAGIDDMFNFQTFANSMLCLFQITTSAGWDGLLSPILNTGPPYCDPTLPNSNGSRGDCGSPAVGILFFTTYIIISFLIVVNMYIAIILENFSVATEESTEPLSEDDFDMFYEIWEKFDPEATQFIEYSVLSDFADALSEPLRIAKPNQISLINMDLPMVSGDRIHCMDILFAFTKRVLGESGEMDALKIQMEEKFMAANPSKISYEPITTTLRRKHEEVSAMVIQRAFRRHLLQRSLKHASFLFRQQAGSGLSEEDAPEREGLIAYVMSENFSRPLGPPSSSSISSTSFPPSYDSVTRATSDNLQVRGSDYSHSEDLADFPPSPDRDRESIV

For orientation: IC50 means the concentration that gives 50% inhibition. Consider `O=S(=O)(Nc1cscn1)c1c(F)cc(NCc2c(F)cccc2CN2CC3(CCC3)C2)cc1F` [Example 252, 4-((2-((2-azaspiro[3.3]heptan-2-yl)methyl)-6-fluorobenzyl)amino)-2,6-difluoro-N-(thiazol-4-yl)benzenesulfonamide formate], for which the figures for the IC50 at NaV1.6, against NaV1.1 and at NaV1.5 were 36 nM, 9.96 µM and 12.6 µM, respectively.

For the compound `C[C@H](Nc1cc(F)c(S(=O)(=O)Nc2cscn2)cc1Cl)c1cccc(CN(C)C)c1` [Example 253, (S)-5-chloro-4-((1-(3-((dimethylamino)methyl)phenyl)ethyl)amino)-2-fluoro-N-(thiazol-4-yl)benzenesulfonamide formate], the half-maximal inhibitory concentration (IC50) against NaV1.6 was 2100 nM; at NaV1.1, 20 µM; at NaV1.5 it was 13.1 µM.

Turning to `C[C@@H](Nc1cc(F)c(S(=O)(=O)Nc2cscn2)cc1Cl)c1cccc(CN(C)C)c1` [Example 254, (R)-5-chloro-4-((1-(3-((dimethylamino)methyl)phenyl)ethyl)amino)-2-fluoro-N-(thiazol-4-yl)benzenesulfonamide formate], the values for the half-maximal inhibitory concentration (IC50) at NaV1.6, at NaV1.1 and on NaV1.5 were 9440 nM, 14.1 µM and 3.62 µM, respectively.

Consider `C[C@H](Nc1cc(F)c(S(=O)(=O)Nc2cscn2)cc1Cl)c1cc(CN2CCCCC2)ccc1F` [Example 256, (S)-5-chloro-2-fluoro-4-((1-(2-fluoro-5-(piperidin-1-ylmethyl)phenyl)ethyl)amino)-N-(thiazol-4-yl)benzenesulfonamide formate], for which the half-inhibitory concentration (IC50) came to 1220 nM against NaV1.6, 8.82 µM at NaV1.1 and 6.97 µM at NaV1.5.

As to `O=S(=O)(Nc1ccon1)c1cc(Cl)c(NCc2ccccc2CN2CCC2)cc1F` [Example 258, 4-((2-(azetidin-1-ylmethyl)benzyl)amino)-5-chloro-2-fluoro-N-(isoxazol-3-yl)benzenesulfonamide], the half-maximal inhibitory concentration (IC50) turned out to be 3690 nM at NaV1.6, 30 µM against NaV1.1 and 30 µM at NaV1.5.

As to `O=S(=O)(Nc1ccon1)c1c(F)cc(NCc2ccccc2CN2CCC2)cc1F` [Example 259, 4-((2-(azetidin-1-ylmethyl)benzyl)amino)-2,6-difluoro-N-(isoxazol-3-yl)benzenesulfonamide], the figures for the IC50 at NaV1.6, against NaV1.1 and on NaV1.5 were 1370 nM, 29.2 µM and 30 µM, respectively.

On to `O=S(=O)(Nc1cccnn1)c1cc(Cl)c(NCc2c(F)cccc2CN2CCC2)cc1F` [Example 260, 4-((2-(azetidin-1-ylmethyl)-6-fluorobenzyl)amino)-5-chloro-2-fluoro-N-(pyridazin-3-yl)benzenesulfonamide], for which the figures for the IC50 against NaV1.6, against NaV1.1 and at NaV1.5 were 1880 nM, 30 µM and 30 µM, respectively.

For the compound `O=S(=O)(Nc1cscn1)c1cc(Cl)c(NCc2ccccc2CCN2CCC2)cc1F` [Example 261, 4-((2-(2-(azetidin-1-yl)ethyl)benzyl)amino)-5-chloro-2-fluoro-N-(thiazol-4-yl)benzenesulfonamide formate], the figures for the IC50 against NaV1.6, against NaV1.1 and at NaV1.5 were 146 nM, 28.9 µM and 26.3 µM, respectively.

Take `O=S(=O)(Nc1cscn1)c1cc(Cl)c(NCc2cc(CCN3CCC3)ccc2F)cc1F` [Example 262, 4-((5-(2-(azetidin-1-yl)ethyl)-2-fluorobenzyl)amino)-5-chloro-2-fluoro-N-(thiazol-4-yl)benzenesulfonamide formate]: the IC50 stood at 1420 nM against NaV1.6, 8.29 µM on NaV1.1 and 7.32 µM on NaV1.5.

`O=S(=O)(Nc1cscn1)c1cc(Cl)c(NCc2cc(CCN3CC(F)C3)ccc2F)cc1F` [Example 263, 5-chloro-2-fluoro-4-((2-fluoro-5-(2-(3-fluoroazetidin-1-yl)ethyl)benzyl)amino)-N-(thiazol-4-yl)benzenesulfonamide formate]: the IC50 against NaV1.6 is 1020 nM; at NaV1.1 it was 7.71 µM; on NaV1.5, 4.78 µM.

Take `O=S(=O)(Nc1cscn1)c1cc(Cl)c(N[C@H]2C[C@H](N3CCC3)c3ccccc32)cc1F` [Example 264, 4-(((1S,3S)-3-(azetidin-1-yl)-2,3-dihydro-1H-inden-1-yl)amino)-5-chloro-2-fluoro-N-(thiazol-4-yl)benzenesulfonamide formate]: the IC50 against NaV1.6 was determined as 30000 nM; at NaV1.1 it was 30 µM; at NaV1.5, 30 µM.

Regarding `C[C@H](Nc1cc(F)c(S(=O)(=O)Nc2ncc(Cl)s2)cc1Cl)c1ccccc1F` [Example 267, (S)-5-chloro-2-fluoro-4-((1-(2-fluorophenyl)ethyl)amino)-N-(5-chlorothiazol-2-yl)benzenesulfonamide], the 50% inhibitory concentration (IC50) against NaV1.6 was found to be 959 nM; on NaV1.1, 3.58 µM; at NaV1.5 it was 6.96 µM.

Consider `Cc1cc(N[C@@H](C)c2ccccc2F)c(Cl)cc1S(=O)(=O)Nc1nccs1` [Example 269, (S)-5-chloro-4-((1-(2-fluorophenyl)ethyl)amino)-2-methyl-N-(thiazol-2-yl)benzenesulfonamide], for which the half-inhibitory concentration (IC50) at NaV1.6 amounted to 584 nM; at NaV1.1, 2.78 µM; at NaV1.5, 6.72 µM.

Regarding `CN(C)Cc1ccccc1CNc1cc(F)c(S(=O)(=O)Nc2cscn2)c(F)c1` [Example 271, 4-((2-((dimethylamino)methyl)benzyl)amino)-2,6-difluoro-N-(thiazol-4-yl)benzenesulfonamide], the results for the IC50 at NaV1.6, at NaV1.1 and on NaV1.5 were 448 nM, 30 µM and 30 µM, respectively.

`CC[C@H](Nc1cc(F)c(S(=O)(=O)Nc2ccncn2)c(F)c1)c1cc(F)ccc1Cl` [Example 276, (S)-4-((1-(2-chloro-5-fluorophenyl)propyl)amino)-2,6-difluoro-N-(pyrimidin-4-yl)benzenesulfonamide]: the figures for the IC50 on NaV1.6, at NaV1.1 and at NaV1.5 were 265 nM, 3.6 µM and 24.3 µM, respectively.

On to `C[C@@H](c1cccc(F)c1CNc1cc(F)c(S(=O)(=O)Nc2cscn2)c(F)c1)N1CCC1` [Example 278, (S)-4-((2-(1-(azetidin-1-yl)ethyl)-6-fluorobenzyl)amino)-2,6-difluoro-N-(thiazol-4-yl)benzenesulfonamide formate], for which the 50% inhibitory concentration (IC50) came out at 187 nM against NaV1.6, 14.2 µM against NaV1.1 and 30 µM at NaV1.5.

Consider `C[C@H](c1cccc(F)c1CNc1cc(F)c(S(=O)(=O)Nc2cscn2)c(F)c1)N1CCC1` [Example 279, (R)-4-((2-(1-(azetidin-1-yl)ethyl)-6-fluorobenzyl)amino)-2,6-difluoro-N-(thiazol-4-yl)benzenesulfonamide formate], for which the half-inhibitory concentration (IC50) is 163 nM on NaV1.6, 11.2 µM at NaV1.1 and 30 µM on NaV1.5.

Regarding `COCc1ccc(F)c([C@H](C)Nc2cc(F)c(S(=O)(=O)Nc3cscn3)cc2Cl)c1` [Example 280, (S)-5-chloro-2-fluoro-4-((1-(2-fluoro-5-(methoxymethyl)phenyl)ethyl)amino)-N-(thiazol-4-yl)benzenesulfonamide], the IC50 on NaV1.6 is 1390 nM; on NaV1.1 it was 8.73 µM; on NaV1.5, 23.9 µM.

For the compound `C[C@H](Nc1cc(F)c(S(=O)(=O)Nc2cscn2)cc1Cl)c1cc(OC(F)F)ccc1F` [Example 281, (S)-5-chloro-4-((1-(5-(difluoromethoxy)-2-fluorophenyl)ethyl)amino)-2-fluoro-N-(thiazol-4-yl)benzenesulfonamide], the IC50 turned out to be 1080 nM against NaV1.6, 7.06 µM against NaV1.1 and 11 µM at NaV1.5.

(Values after patent publication US11174268B2, “Benzenesulfonamide compouds and their use as therapeutic agents” (Xenon Pharmaceuticals Inc., priority 2016, dated 2021).)
